Laboratory results published in PubChem BioAssay (NCI).
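48-hour exposure; five concentrations; linearly interpolated endpoints. Definition used: TGI = concentration required for complete inhibition of growth.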

Experiments:
Experiment in all cases: NCI anticancer screen, dose series, 48 h
BT-549 breast = tested on: BT-549 breast
HCT-116 colon = tested on: HCT-116 colon
HCT-15 colon = tested on: HCT-15 colon
IGROV1 ovarian = tested on: IGROV1 ovarian
K-562 leukemia = tested on: K-562 leukemia
MCF7 breast = tested on: MCF7 breast
MDA-MB-231 breast = tested on: MDA-MB-231 breast
MOLT-4 leukemia = tested on: MOLT-4 leukemia
NCI-H226 lung = tested on: NCI-H226 lung
NCI-H23 lung = tested on: NCI-H23 lung
OVCAR-4 ovarian = tested on: OVCAR-4 ovarian
OVCAR-8 ovarian = tested on: OVCAR-8 ovarian
RPMI-8226 leukemia = tested on: RPMI-8226 leukemia
RXF 393 renal = tested on: RXF 393 renal
SK-MEL-2 melanoma = tested on: SK-MEL-2 melanoma
SK-MEL-5 melanoma = tested on: SK-MEL-5 melanoma
SW-620 colon = tested on: SW-620 colon
U251 CNS = tested on: U251 CNS
UACC-257 melanoma = tested on: UACC-257 melanoma
UACC-62 melanoma = tested on: UACC-62 melanoma

SMILES | TGI (BT-549 breast) | TGI (HCT-116 colon) | TGI (HCT-15 colon) | TGI (IGROV1 ovarian) | TGI (K-562 leukemia) | TGI (MCF7 breast) | TGI (MDA-MB-231 breast) | TGI (MOLT-4 leukemia) | TGI (NCI-H226 lung) | TGI (NCI-H23 lung) | TGI (OVCAR-4 ovarian) | TGI (OVCAR-8 ovarian) | TGI (RPMI-8226 leukemia) | TGI (RXF 393 renal) | TGI (SK-MEL-2 melanoma) | TGI (SK-MEL-5 melanoma) | TGI (SW-620 colon) | TGI (U251 CNS) | TGI (UACC-257 melanoma) | TGI (UACC-62 melanoma)
CN1CC=C(c2cccn2C)CC1 | > 100 µM | > 100 µM | > 100 µM | > 100 µM | > 100 µM | > 100 µM | > 100 µM | > 100 µM | > 100 µM | > 100 µM | > 100 µM | > 100 µM | > 100 µM | > 100 µM | > 100 µM | > 100 µM | > 100 µM | > 100 µM | > 100 µM | > 100 µM
COc1ccc(-n2c(Cn3nnc(-c4cccnc4)n3)nn(C3OC(COC(=O)c4ccccc4)C(OC(=O)c4ccccc4)C3OC(=O)c3ccccc3)c2=S)cc1 (stereo not given) | > 100 µM | > 100 µM | > 100 µM | > 100 µM | > 100 µM | > 100 µM | > 100 µM | > 100 µM | 36.1 µM | > 100 µM | > 100 µM | > 100 µM | > 100 µM | > 100 µM | > 100 µM | > 100 µM | > 100 µM | > 100 µM | > 100 µM | > 100 µM
O=c1nc2c(c(-c3ccc(F)cc3)[nH]1)COC/C2=C\c1ccc(F)cc1 | > 100 µM | > 100 µM | > 100 µM | > 100 µM | > 100 µM | > 100 µM | > 100 µM | > 100 µM | > 100 µM | > 100 µM | > 100 µM | > 100 µM | > 100 µM | > 100 µM | > 100 µM | > 100 µM | > 100 µM | > 100 µM | > 100 µM | > 100 µM
COC(=O)c1ccc(C)cc1C1CN=NC12Cc1cc(C)ccc1C2=O (stereo not given) | > 85.7 µM | 28.6 µM | > 100 µM | > 100 µM | > 68.1 µM | 24 µM | 64.9 µM | > 86.6 µM | 88 µM | 66.5 µM | 98.7 µM | > 100 µM | 66.2 µM | > 71.6 µM | 45.8 µM | 21.6 µM | > 100 µM | > 70.6 µM | > 94.2 µM | > 87.3 µM
Cc1cccc(N=C/C=C(\Cl)c2ccc3ccccc3c2)c1 | 44.5 µM | 9.02 µM | 28.2 µM | > 60.3 µM | 40 µM | > 95.9 µM | 33.6 µM | 8.19 µM | > 69.3 µM | 34.5 µM | 41.2 µM | 43 µM | 29 µM | > 56.9 µM | 68.9 µM | 37.1 µM | > 66.5 µM | 31 µM | 39.1 µM | 32.5 µM
O=C1CCSc2nc(-c3ccc4c(c3)OCO4)nn21 | > 10 µM | > 10 µM | > 10 µM | > 10 µM | > 10 µM | > 10 µM | > 10 µM | > 10 µM | > 10 µM | > 10 µM | > 10 µM | > 10 µM | > 10 µM | > 10 µM | > 10 µM | > 10 µM | > 10 µM | > 10 µM | > 10 µM | > 10 µM
CCOC(=O)c1cn(CC)c2ccc3ccsc3c2c1=O | > 100 µM | > 100 µM | > 100 µM | > 100 µM | > 100 µM | > 100 µM | > 100 µM | > 100 µM | > 100 µM | > 100 µM | > 100 µM | > 100 µM | > 100 µM | > 100 µM | > 100 µM | > 100 µM | > 100 µM | > 100 µM | > 100 µM | > 100 µM
OCC1OC(n2cnc3c(SCc4ccccc4)ncnc32)C(O)C1O (stereo not given) | > 100 µM | > 100 µM | > 100 µM | > 100 µM | > 100 µM | > 100 µM | > 100 µM | > 39.8 µM | > 100 µM | > 100 µM | > 100 µM | 37.4 µM | > 100 µM | > 100 µM | > 100 µM | > 100 µM | > 100 µM | > 100 µM | > 100 µM | > 100 µM
CCOC(=O)C1(C#N)C(C#N)(C#N)C1(C#N)C#N | > 100 µM | > 100 µM | > 100 µM | > 100 µM | > 100 µM | > 100 µM | > 100 µM | > 100 µM | > 100 µM | > 100 µM | > 100 µM | > 100 µM | > 100 µM | > 100 µM | > 100 µM | > 100 µM | > 100 µM | > 100 µM | > 100 µM | > 100 µM
